Source: patent US9556190B2, “Piperidinyloxy lactone orexin receptor antagonists” (MERCK SHARP & DOHME CORP., priority 2013, dated 2017)

Experiments:
human orexin-2 receptor = human orexin-2 receptor (Homo sapiens (Human), UniProt O43614); assay: FLIPR Ca2+ Flux Assay, CHO cells expressing orexin-2 receptor; type: cell-based; conditions: 70 pM Ala-6,12 orexin-A agonist, read-out: hOX2R FLIPR IC50
Method: The utility of the compounds in accordance with the present invention as orexin receptor OX1R and/or OX2R antagonists may be readily determined without undue experimentation by methodology well known in the art, including the “FLIPR Ca^2+ Flux Assay” (Okumura et al., Biochem. Biophys. Res. Comm. 280:976-981, 2001). In a typical experiment the OX1 and OX2 receptor antagonistic activity of the compounds of the present invention was determined in accordance with the following experimental method. For intracellular calcium measurements, Chinese hamster ovary (CHO) cells expressing the rat orexin-1 receptor or the human orexin-2 receptor, are grown in Iscove's modified DMEM containing 2 mM L-glutamine, […], 1% hypoxanthine-thymidine supplement, 100 U/ml penicillin, 100 μg/ml streptomycin and 10% heat-inactivated fetal calf serum (FCS). The cells are seeded at 20,000 cells/well into Becton-Dickinson black 384-well clear bottom sterile plates coated with poly-D-lysine. All reagents were from GIBCO-Invitrogen Corp. The seeded plates are incubated overnight at 37° C. and 5% CO2. Ala-6,12 human orexin-A as the agonist is prepared as a 1 mM stock solution in 1% bovine serum albumin (BSA) and diluted in assay buffer (HBSS containing 20 mM HEPES, 0.1% BSA and 2.5 mM probenecid, pH7.4) for use in the assay at a final concentration of 70 pM. Test compounds are prepared as 10 mM stock solution in DMSO, then diluted in 384-well plates, first in DMSO, then assay buffer. On the day of the assay, cells are washed 3 times with 100 μl assay buffer and then incubated for 60 min (37° C., 5% CO2) in 60 μl assay buffer containing 1 μM Fluo-4AM ester, 0.02% pluronic acid, and 1% BSA. The dye loading solution is then aspirated and cells are washed 3 times with 100 μl assay buffer. 30 μl of that same buffer is left in each well. Within the Fluorescent Imaging Plate Reader (FLIPR, Molecular Devices), test compounds are added to the plate in a volume of 25 μl, incubated for 5 min and finally 25 μl of agonist is added. Fluorescence is measured for each well at 1 second intervals for 5 minutes and the height of each fluorescence peak is compared to the height of the fluorescence peak induced by 70 pM Ala-6,12 orexin-A with buffer in place of antagonist. For each antagonist, IC50 value (the concentration of compound needed to inhibit 50% of the agonist response) is determined. Alternatively, compound potency can be assessed by a radioligand binding assay (described in Bergman et. al. Bioorg. Med. Chem. Lett. 2008, 18, 1425-1430) in which the inhibition constant (Ki) is determined in membranes prepared from CHO cells expressing either the OX1 or OX2 receptor. The intrinsic orexin receptor antagonist activity of a compound which may be used in the present invention may be determined by these assays.

hOX1R = hOX1R (Homo sapiens, UniProt O43613); assay: FLIPR Ca2+ Flux Assay, CHO cells expressing orexin-1 receptor; type: cell-based; conditions: 70 pM Ala-6,12 orexin-A agonist

Chain of human orexin-2 receptor (O43614 whole entry): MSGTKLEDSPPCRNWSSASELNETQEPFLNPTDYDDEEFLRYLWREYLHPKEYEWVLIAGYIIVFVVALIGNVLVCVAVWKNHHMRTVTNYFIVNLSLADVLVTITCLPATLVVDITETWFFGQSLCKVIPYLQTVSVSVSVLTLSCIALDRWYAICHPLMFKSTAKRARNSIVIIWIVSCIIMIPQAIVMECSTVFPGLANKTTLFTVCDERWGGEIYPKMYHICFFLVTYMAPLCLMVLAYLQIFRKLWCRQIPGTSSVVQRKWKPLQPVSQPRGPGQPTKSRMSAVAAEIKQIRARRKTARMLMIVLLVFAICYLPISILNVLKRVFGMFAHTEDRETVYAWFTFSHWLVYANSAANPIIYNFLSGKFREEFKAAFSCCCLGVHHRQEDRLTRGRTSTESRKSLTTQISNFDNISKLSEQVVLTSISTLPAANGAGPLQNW

| SMILES | IC50 (human orexin-2 receptor) [nM] | IC50 (hOX1R) [nM] |
| --- | --- | --- |
| C[C@@H]1CC[C@@H](Oc2nccc3c2C(=O)OC3(C)C)CN1C(=O)c1c(F)cccc1-n1nccn1 [Example 6, 4-(((3R,6R)-1-(2-fluoro-6-(2H-1,2,3-triazol-2-yl)benzoyl)-6-methylpiperidin-3-yl)oxy)-1,1-dimethylfuro[3,4-c]pyridin-3(1H)-one] | 13 | 2710 |
| C[C@@H]1CC[C@@H](Oc2nccc3c2C(=O)OC3(C)C)CN1C(=O)c1ccc(Cl)cc1-n1nccn1 [Example 9, 4-{[(3R,6R)-1-{[4-chloro-2-(2H-1,2,3-triazol-2-yl)phenyl]carbonyl}-6-methylpiperidin-3-yl]oxy}-1,1-dimethylfuro[3,4-c]pyridin-3(1H)-one] | 54 | 3740 |
| C[C@@H]1CC[C@@H](Nc2nccc3c2C(=O)O[C@@H]3C)CN1C(=O)c1ccccc1-n1nccn1 [Example 47, (1R)-1-methyl-4-{[(3R,6R)-6-methyl-1-{[2-(2H-1,2,3-triazol-2-yl)phenyl]carbonyl}piperidin-3-yl]amino}furo[3,4-c]pyridin-3(1H)-one] | 35 | 7260 |
| C[C@@H]1CC[C@@H](Oc2nccc3c2C(=O)OC3(C)C)CN1C(=O)c1c(F)cccc1-c1ncccn1 [Example 26, 4-({(3R,6R)-1-[(2-fluoro-6-pyrimidin-2-ylphenyl)carbonyl]-6-methylpiperidin-3-yl}oxy)-1,1-dimethylfuro[3,4-c]pyridin-3(1H)-one] | 109 | 10000 |
| C[C@@H]1CC[C@@H](Oc2nccc3c2C(=O)OC3(C)C)CN1C(=O)c1cc(F)ccc1-n1nccn1 [Example 4, 4-{[(3R,6R)-1-{[5-fluoro-2-(2H-1,2,3-triazol-2-yl)phenyl]carbonyl}-6-methylpiperidin-3-yl]oxy}-1,1-dimethylfuro[3,4-c]pyridin-3(1H)-one] | 23 | 10000 |
